The target in assay [1] is T1, 11beta-HSD1 (Homo sapiens, UniProt P28845). As to the kind of experiment: Microsome assay: cortisone to cortisol conversion, ELISA-based cortisol detection. In kind it is biochemical. On the set-up: made in house; host or cells: HEK293 cells (ATCC CRL-1573), transient transfection with lipofectamine; microsomal fraction. The conditions noted are these: microsomes from HEK293 cells transiently expressing human 11beta-HSD1; cortisone 50-200 nM, NADPH 1 mM, 60 min, 37° C.; read-out: h 11-beta-HSD 1 IC50. Here is the method: The cDNA encoding the human 11beta-HSD1 protein was cloned into the expression vector pcDNA3 ([…]). This construct (for details see Alex Odermatt et al.; J Biol. Chem., 1999, Vol. 274, Issue 40, 28762-28770) was used to transiently express the protein in HEK293 cells (ATCC number: CRL-1573, described in Graham, F. L., Smiley, J., Russell, W. C., Nairn, R.; (1977)) using lipofectamine. 48 h after transfection cells were washed twice with ice-cold PBS (Phsophate buffered Saline). To 1 volume of cell suspension in PBS 2 volumes of ice-cold lysis buffer (50 mM Tris; pH7.5; 1 mM EDTA; 100 mM NaCl) were added. The cells were lysed by Potter-homogenization (20 strokes). The resulting homogenate was sonicated with a tip sonicator (10% output; 2×30 sec.) and cleared by a low speed centrifugation (10 min×9000 g; 4° C.). The microsomal fraction was collected by a high speed centrifugation (60 min×110,000 g). The resulting pellet was resuspended in storage buffer (20 mM Tris pH 7.5; 1 mM EDTA; 10% Glycerol) and the centrifugation was repeated. The resulting pellet containing the microsomal fraction was again taken up into storage buffer and aliquots were kept frozen in liquid Nitrogen until use.
T1 sequence (P28845 whole entry): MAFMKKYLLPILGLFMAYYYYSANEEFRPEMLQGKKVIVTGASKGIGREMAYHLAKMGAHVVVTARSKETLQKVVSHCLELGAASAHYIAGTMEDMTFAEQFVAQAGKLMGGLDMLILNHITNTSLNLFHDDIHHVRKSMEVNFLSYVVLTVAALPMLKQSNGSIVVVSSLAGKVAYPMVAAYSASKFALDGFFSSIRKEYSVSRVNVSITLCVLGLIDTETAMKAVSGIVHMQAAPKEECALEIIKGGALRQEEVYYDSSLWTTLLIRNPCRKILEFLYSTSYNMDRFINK
Microsomes isolated from HEK293 cells transiently expressing human 11beta-HSD1 (for details see above) were incubated in assay buffer (100 mM NaCl; 1 mM EDTA; 1 mM EGTA; 1 mM MgCl; 250 mM Sucrose; 20 mM Tris pH 7.4; Cortisone 50-200 nM and NADPH 1 mM) together with different concentrations of test substances. After 60 min. of incubation at 37° C. the assay was stopped by heating to 80° C. (5 min.) and by addition of the inhibitor Carbenoxolone (1 uM). The amount of Cortisol produced in this assay was determined using a commercially available, ELISA-based Cortisol-detection kit (Distributed by Assay Design, Inc.). Inhibitors were characterized by their IC50 values, e.g. the concentration at which the production of cortisol was 50% reduced.
For orientation: An ELISA detects its analyte on a solid surface through an enzyme-linked reagent.

Assay [2] addresses T1, 11beta-HSD1. On the set-up: host or cells: in vivo treatment of human subjects. The following applies: in man, treatment with carbenoxolone; cited from earlier work.

The IC50 is the point on the concentration scale where inhibition reaches its midpoint. As for `O=c1[nH]c(CC(F)(F)F)cn1C1C2CC3CC(C2)CC1C3` (stereo not shown) [Example 16, 1-Adamantan-2-yl-4-(2,2,2-trifluoro-ethyl)-1,3-dihydro-imidazol-2-one], the IC50 at 11beta-HSD1 [1] was determined as 39 nM.

Turning to `CC(C)Cc1cn(-c2ccccc2OC(F)(F)F)c(=O)n1CC1CC1` [Example 45, 3-Cyclopropylmethyl-4-isobutyl-1-(2-trifluoromethoxy-phenyl)-1,3-dihydro-imidazol-2-one], on 11beta-HSD1 [1], the IC50 came out at 192 nM.

For `CC1(C2CC2)CN(C2C3CC4CC2CC(O)(C4)C3)C(=O)N1C1CC1` (stereo not shown) [Example 80, 3,4-Dicyclopropyl-1-[(E)-5-hydroxy-adamantan-2-yl]-4-methyl-imidazolidin-2-one], the IC50 at 11beta-HSD1 [1] is 3 nM.

In the case of `CC1(C)[C@@H](OC(=O)CCC(=O)O)CC[C@]2(C)[C@H]3C(=O)C=C4[C@@H]5C[C@@](C)(C(=O)O)CC[C@]5(C)CC[C@@]4(C)[C@]3(C)CC[C@@H]12` [carbenoxolone], the insulin sensitivity entry at 11beta-HSD1 [2] was “increase in insulin sensitivity”.

Source of the values: patent US8129423B2, “Imidazolone and imidazoloidinone derivatives as 11b-HSD1 inhibitors” (Hoffman-La Roche Inc., priority 2006, dated 2012).
